This is an account of results in PubChem BioAssay AID328 (DTP/NCI, 2004).

Values joined by “and” are separate entries in the source; they are usually repeats but may differ in a detail not shown here. Equal values may be shown once. Inconclusive results and toxic doses are left out.

In this experiment the test system is BDF1 mice, P388 leukemia ip, median survival T/C. As to the kind of experiment: NCI In Vivo Anticancer Drug Screen. Data for tumor model P388 Leukemia (intraperitoneal) in B6D2F1 (BDF1) mice. The settings on record: endpoint: median survival time, higher = longer survival. The procedure, abridged: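 Steps: implant the tumour, treat one group with compound and another with vehicle, record survival, then divide treated by control.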

Where [1] appears, read: dose: 50.0 mg/kg/injection, schedule: Q01DX009 (ip), vehicle: saline.
[2] abbreviates: dose: 100.0 mg/kg/injection, schedule: Q01DX009 (ip), vehicle: saline.
The mark [3] stands for this setting: dose: 100.0 mg/kg/injection, schedule: Q04DX003 (ip), vehicle: saline.
[4] abbreviates: dose: 200.0 mg/kg/injection, schedule: Q01DX009 (ip), vehicle: saline.
The mark [5] stands for this setting: dose: 200.0 mg/kg/injection, schedule: Q04DX003 (ip), vehicle: saline.
[6] abbreviates: dose: 400.0 mg/kg/injection, schedule: Q04DX003 (ip), vehicle: saline.
The mark [7] stands for this setting: dose: 50.0 mg/kg/injection, schedule: Q01DX009 (ip), vehicle: saline with Tween-80.
Setting [8] is: dose: 100.0 mg/kg/injection, schedule: Q01DX009 (ip), vehicle: saline with Tween-80.
Setting [9] is: dose: 200.0 mg/kg/injection, schedule: Q01DX009 (ip), vehicle: saline with Tween-80.

For `CCOC(=O)C(C(C)=O)C(c1ccc([N+](=O)[O-])cc1)C(C(C)=O)C(=O)OCC` (centres undefined), the T/C is 117 % of control (dose: 0.78 mg/kg/injection, schedule: Q04DX003 (ip), vehicle: saline); 114 % of control (dose: 1.56 mg/kg/injection, schedule: Q04DX003 (ip), vehicle: saline); 108 % of control (dose: 3.12 mg/kg/injection, schedule: Q01DX009 (ip), vehicle: saline); 104 % of control (dose: 3.12 mg/kg/injection, schedule: Q04DX003 (ip), vehicle: saline); 106 % of control (dose: 6.25 mg/kg/injection, schedule: Q01DX009 (ip), vehicle: saline); 99 % of control (dose: 6.25 mg/kg/injection, schedule: Q04DX003 (ip), vehicle: saline). Moreover, the T/C reads like this: (dose: 12.5 mg/kg/injection, schedule: Q01DX009 (ip), vehicle: saline) 100 % of control; (dose: 12.5 mg/kg/injection, schedule: Q04DX003 (ip), vehicle: saline) 111 % of control; (dose: 25.0 mg/kg/injection, schedule: Q01DX009 (ip), vehicle: saline) 92 % of control; (dose: 25.0 mg/kg/injection, schedule: Q04DX003 (ip), vehicle: saline) 99 % of control; under setting [1], 89 % of control; under setting [2], 93 % of control.

As for `CCOC(=O)CCN1CCCCC1`, the T/C reads like this: under setting [2], 96 % of control; under setting [3], 95 % of control; under setting [4], 89 % of control; under setting [5], 109 % of control; (dose: 400.0 mg/kg/injection, schedule: Q01DX009 (ip), vehicle: saline) 107 % of control; under setting [6], 109 % of control.

For the compound `COc1cc2c(cc1OC)C(CN)C2` (centres undefined), the T/C by setting is: under setting [1], 98 % of control; under setting [2], 96 % of control; under setting [4], 98 % of control.

On to `C=C1C(C)C2C(Cc3ccccc3)NC(=O)C23C(OC(C)=O)C=CC(C)(O)C(=O)C(C)C/C=C/C3C1O` (centres undefined), for which the T/C (dose: 0.62 mg/kg/injection, schedule: Q01DX009 (ip), vehicle: saline with Tween-80) was 104 % of control; the T/C (dose: 1.25 mg/kg/injection, schedule: Q01DX009 (ip), vehicle: saline with Tween-80) is 110 % of control; the T/C (dose: 1.6 mg/kg/injection, schedule: Q01DX009 (ip), vehicle: saline) is 157 % of control; the T/C (dose: 2.5 mg/kg/injection, schedule: Q01DX009 (ip), vehicle: saline) was 172 % of control.

As for `O=C(O)C1OC1C(=O)O` (centres undefined), the T/C is, setting by setting: (dose: 75.0 mg/kg/injection, schedule: Q01DX009 (ip), vehicle: saline) 90 % of control; (dose: 150.0 mg/kg/injection, schedule: Q01DX009 (ip), vehicle: saline) 100 % of control; (dose: 300.0 mg/kg/injection, schedule: Q01DX009 (ip), vehicle: saline) 100 % of control.

On to `CC1(C)C2CCC([CH2][Hg][Cl])C1C2` (centres undefined), for which the T/C was 90 % of control (dose: 1.5 mg/kg/injection, schedule: Q01DX009 (ip), vehicle: Klucel (hydroxypropylcellulose) (HPC)); 100 % of control (dose: 3.0 mg/kg/injection, schedule: Q01DX009 (ip), vehicle: Klucel (hydroxypropylcellulose) (HPC)); 90 % of control (dose: 6.0 mg/kg/injection, schedule: Q01DX009 (ip), vehicle: Klucel (hydroxypropylcellulose) (HPC)); 104 % of control (dose: 12.0 mg/kg/injection, schedule: Q01DX009 (ip), vehicle: Klucel (hydroxypropylcellulose) (HPC)); 115 % of control (dose: 25.0 mg/kg/injection, schedule: Q01DX009 (ip), vehicle: saline with Tween-80).

As to `CCCC#CC#N`, the T/C runs as follows: (dose: 25.0 mg/kg/injection, schedule: Q01DX009 (ip), vehicle: olive oil, sesame oil, peanut oil) 104 % of control; (dose: 50.0 mg/kg/injection, schedule: Q01DX009 (ip), vehicle: olive oil, sesame oil, peanut oil) 91 % of control.

For the compound `CNC(=S)ON1CCCCC1`, the T/C is, setting by setting: under setting [7], 116 % of control; under setting [8], 114 % of control; under setting [9], 121 % of control.

In the case of `CC(CN1c2ccccc2Sc2ccccc21)N(C)C` (centres undefined), the T/C (dose: 18.75 mg/kg/injection, schedule: Q01DX009 (ip), vehicle: saline) is 100 % of control; the T/C (dose: 37.5 mg/kg/injection, schedule: Q04DX003 (ip), vehicle: saline) is 121 % of control; the T/C (dose: 75.0 mg/kg/injection, schedule: Q04DX003 (ip), vehicle: saline) is 117 % of control; the T/C (dose: 150.0 mg/kg/injection, schedule: Q04DX003 (ip), vehicle: saline) is 95 % of control.

For `CCCCNC(C)(C)C(SSSC(c1ccc(C(F)(F)F)cc1)C(C)(C)NCCCC)c1ccc(C(F)(F)F)cc1` (centres undefined), the T/C under setting [3] was 120 % of control and the T/C under setting [6] is 120 % of control.

Regarding `c1cc(OCC2CO2)ccc1OCC1CO1` (centres undefined), the T/C is 119 % of control (dose: 78.0 mg/kg/injection, schedule: Q04DX003 (ip), vehicle: saline with Tween-80); 153 % of control (dose: 177.0 mg/kg/injection, schedule: Q04DX003 (ip), vehicle: saline with Tween-80); 122 % of control (dose: 600.0 mg/kg/injection, schedule: Q04DX003 (ip), vehicle: saline with Tween-80).

Regarding `CNCC(=O)NC(CO)C(=O)NC1C(C(N)=O)OC(n2ccc(N)nc2=O)C(O)C1O` (centres undefined), the T/C (dose: 0.75 mg/kg/injection, schedule: Q04DX003 (ip), vehicle: saline) was 103 % of control; the T/C (dose: 1.5 mg/kg/injection, schedule: Q04DX003 (ip), vehicle: saline) is 112 % of control; the T/C (dose: 3.0 mg/kg/injection, schedule: Q04DX003 (ip), vehicle: saline) was 102 % of control.

`COc1cc2cc3c4ccc(OC)c(OC)c4cc[n+]3c(C)c2cc1OC` (tested in a mixture with another compound): the T/C (dose: 20.0 mg/kg/injection, schedule: Q01DX009 (ip), vehicle: saline) was 164 % of control; the T/C (dose: 40.0 mg/kg/injection, schedule: Q01DX009 (ip), vehicle: saline) is 150 % of control and 156 % of control; the T/C (dose: 80.0 mg/kg/injection, schedule: Q01DX009 (ip), vehicle: saline) was 168 % of control and 172 % of control; the T/C (dose: 120.0 mg/kg/injection, schedule: Q01DX009 (ip), vehicle: saline) is 172 % of control and 185 % of control.

Consider `Cc1cc2nc(C)c(=O)[nH]c2cc1C`, for which the T/C reads like this: (dose: 100.0 mg/kg/injection, schedule: Q01DX009 (ip), vehicle: Klucel (hydroxypropylcellulose) (HPC)) 100 % of control; (dose: 100.0 mg/kg/injection, schedule: Q04DX003 (ip), vehicle: Klucel (hydroxypropylcellulose) (HPC)) 95 % of control; (dose: 200.0 mg/kg/injection, schedule: Q01DX009 (ip), vehicle: Klucel (hydroxypropylcellulose) (HPC)) 95 % of control; (dose: 200.0 mg/kg/injection, schedule: Q04DX003 (ip), vehicle: Klucel (hydroxypropylcellulose) (HPC)) 95 % of control; (dose: 400.0 mg/kg/injection, schedule: Q04DX003 (ip), vehicle: Klucel (hydroxypropylcellulose) (HPC)) 95 % of control.

Take `O=S(=O)(O)C1CCCCC1O` (centres undefined): the T/C (dose: 100.0 mg/kg/injection, schedule: Q04DX002 (ip), vehicle: saline with Tween-80) was 98 % of control and the T/C (dose: 200.0 mg/kg/injection, schedule: Q04DX002 (ip), vehicle: saline with Tween-80) is 101 % of control.

As to `O=[N+]([O-])c1cccc2c[n+](Cc3ccc(Br)cc3)ccc12`, the T/C (dose: 12.5 mg/kg/injection, schedule: Q01DX009 (ip), vehicle: saline with Tween-80) was 123 % of control.

For `O=C(Nc1ccccc1F)C12CC3CC(CC(C3)C1)C2`, the T/C was 92 % of control under setting [7], 96 % of control under setting [8] and 96 % of control under setting [9].

In the case of `CCOC(=O)c1cc2nc3ccccn3c(=O)c2cc1N`, the T/C is 100 % of control under setting [8] and 91 % of control under setting [9].

`CC(=O)Nc1cccc([N+](=O)[O-])c1`: the T/C reads like this: under setting [7], 100 % of control; under setting [8], 100 % of control; under setting [9], 104 % of control.

`CCCNCC(O)c1cc(C(F)(F)F)nc2c(C(F)(F)F)cccc12` (centres undefined): the T/C is 115 % of control under setting [7] and 104 % of control under setting [8].

As for `Nc1ccc2c(-c3ccccc3)cc(NCCCN3CCOCC3)nc2n1`, the T/C reads like this: under setting [3], 104 % of control; under setting [5], 100 % of control.
